Results as given in ChEMBL document CHEMBL4138123, “Design, synthesis and biological evaluation of novel pyrazolochalcones as potential modulators of PI3K/Akt/mTOR pathway and inducers of apoptosis in breast cancer cells” (Eur J Med Chem, 2017).

Assays:
[1] = test system: MOLT-4; test: Cytotoxicity against human MOLT4 cells assessed as cell growth at 100 uM after 48 hrs by sulforhodamine B assay relative to control; assay type: functional; details: MOLT-4, 48 h, read-out: Activity
[2] = test system: RXF 393; test: Cytotoxicity against human RXF393 cells assessed as cell growth at 10 uM after 48 hrs by sulforhodamine B assay relative to control; assay type: functional; details: RXF 393, 48 h, read-out: Activity
[3] = test system: MDA-MB-231; test: Cytotoxicity against human MDA-MB-231 cells assessed as cell growth at 0.1 uM after 48 hrs by sulforhodamine B assay relative to control; assay type: functional; details: MDA-MB-231, 48 h, read-out: Activity
[4] = test system: K562; test: Cytotoxicity against human K562 cells assessed as cell growth at 1 uM after 48 hrs by sulforhodamine B assay relative to control; assay type: functional; details: K562, 48 h, read-out: Activity
[5] = test system: OVCAR-8; test: Cytotoxicity against human OVCAR8 cells assessed as cell growth at 100 uM after 48 hrs by sulforhodamine B assay relative to control; assay type: functional; details: OVCAR-8, 48 h, read-out: Activity
[6] = test system: HCC 2998; test: Cytotoxicity against human HCC2998 cells assessed as growth inhibition after 48 hrs by sulforhodamine B assay; assay type: functional; details: HCC 2998, 48 h
[7] = test system: SK-MEL-5; test: Cytotoxicity against human SK-MEL-5 cells assessed as cell growth at 10 uM after 48 hrs by sulforhodamine B assay relative to control; assay type: functional; details: SK-MEL-5, 48 h, read-out: Activity
[8] = test system: OVCAR-5; test: Cytotoxicity against human OVCAR5 cells assessed as cell growth at 100 uM after 48 hrs by sulforhodamine B assay relative to control; assay type: functional; details: OVCAR-5, 48 h, read-out: Activity
[9] = test system: SK-OV-3; test: Cytotoxicity against human SKOV3 cells assessed as cell growth at 1 uM after 48 hrs by sulforhodamine B assay relative to control; assay type: functional; details: SK-OV-3, 48 h, read-out: Activity
[10] = test system: M14; test: Cytotoxicity against human M14 cells assessed as cell growth at 0.01 uM after 48 hrs by sulforhodamine B assay relative to control; assay type: functional; details: M14, 48 h, read-out: Activity
[11] = test system: MOLT-4; test: Cytotoxicity against human MOLT4 cells assessed as cell growth at 10 uM after 48 hrs by sulforhodamine B assay relative to control; assay type: functional; details: MOLT-4, 48 h, read-out: Activity
[12] = test system: Malme-3M; test: Cytotoxicity against human MALME-3M cells assessed as cell growth at 1 uM after 48 hrs by sulforhodamine B assay relative to control; assay type: functional; details: read-out: Activity
[13] = test system: NCI-H522; test: Cytotoxicity against human NCI-H522 cells assessed as cell growth at 100 uM after 48 hrs by sulforhodamine B assay relative to control; assay type: functional; details: NCI-H522, 48 h, read-out: Activity
[14] = test system: HCC 2998; test: Cytotoxicity against human HCC2998 cells assessed as cell growth at 0.1 uM after 48 hrs by sulforhodamine B assay relative to control; assay type: functional; details: HCC 2998, 48 h, read-out: Activity
[15] = test system: A549; test: Cytotoxicity against human A549/ATCC cells assessed as cell growth at 10 uM after 48 hrs by sulforhodamine B assay relative to control; assay type: functional; details: A549, 48 h, read-out: Activity
[16] = test system: SNB-19; test: Cytotoxicity against human SNB19 cells assessed as cell growth at 1 uM after 48 hrs by sulforhodamine B assay relative to control; assay type: functional; details: SNB-19, 48 h, read-out: Activity
[17] = test system: HCT-15; test: Cytotoxicity against human HCT15 cells assessed as growth inhibition after 48 hrs by sulforhodamine B assay; assay type: functional; details: HCT-15, 48 h
[18] = test system: TK-10; test: Cytotoxicity against human TK10 cells assessed as cell growth at 100 uM after 48 hrs by sulforhodamine B assay relative to control; assay type: functional; details: TK-10, 48 h, read-out: Activity
[19] = test system: M14; test: Cytotoxicity against human M14 cells assessed as cell growth at 100 uM after 48 hrs by sulforhodamine B assay relative to control; assay type: functional; details: M14, 48 h, read-out: Activity
[20] = test system: NCI-H322M; test: Cytotoxicity against human NCI-H322M cells assessed as growth inhibition after 48 hrs by sulforhodamine B assay; assay type: functional; details: for CC50: read-out: LC50 (the source's name)
[21] = test system: M14; test: Cytotoxicity against human M14 cells assessed as cell growth at 0.1 uM after 48 hrs by sulforhodamine B assay relative to control; assay type: functional; details: M14, 48 h, read-out: Activity
[22] = test system: OVCAR-4; test: Cytotoxicity against human OVCAR4 cells assessed as cell growth at 10 uM after 48 hrs by sulforhodamine B assay relative to control; assay type: functional; details: OVCAR-4, 48 h, read-out: Activity
[23] = test system: NCI-H23; test: Cytotoxicity against human NCI-H23 cells assessed as cell growth at 100 uM after 48 hrs by sulforhodamine B assay relative to control; assay type: functional; details: NCI-H23, 48 h, read-out: Activity
[24] = test system: SF-268; test: Cytotoxicity against human SF268 cells assessed as cell growth at 10 uM after 48 hrs by sulforhodamine B assay relative to control; assay type: functional; details: SF-268, 48 h, read-out: Activity
[25] = test system: NCI-H23; test: Cytotoxicity against human NCI-H23 cells assessed as cell growth at 1 uM after 48 hrs by sulforhodamine B assay relative to control; assay type: functional; details: NCI-H23, 48 h, read-out: Activity
[26] = test system: MDA-MB-231; test: Cytotoxicity against human MDA-MB-231 cells assessed as growth inhibition after 48 hrs by MTT assay; assay type: functional, cell-based; details: MDA-MB-231, 48 h
[27] = test system: SW-620; test: Cytotoxicity against human SW620 cells assessed as growth inhibition after 48 hrs by sulforhodamine B assay; assay type: functional; details: SW-620, 48 h
[28] = test system: SF-268; test: Cytotoxicity against human SF268 cells assessed as cell growth at 0.1 uM after 48 hrs by sulforhodamine B assay relative to control; assay type: functional; details: SF-268, 48 h, read-out: Activity
[29] = test system: K562; test: Cytotoxicity against human K562 cells assessed as cell growth at 100 uM after 48 hrs by sulforhodamine B assay relative to control; assay type: functional; details: K562, 48 h, read-out: Activity
[30] = test system: KM12; test: Cytotoxicity against human KM12 cells assessed as cell growth at 100 uM after 48 hrs by sulforhodamine B assay relative to control; assay type: functional; details: KM12, 48 h, read-out: Activity
[31] = test system: T47D; test: Cytotoxicity against human T47D cells assessed as cell growth at 100 uM after 48 hrs by sulforhodamine B assay relative to control; assay type: functional; details: read-out: Activity
[32] = test system: MDA-MB-435; test: Cytotoxicity against human MDA-MB-435 cells assessed as growth inhibition after 48 hrs by sulforhodamine B assay; assay type: functional; details: MDA-MB-435, 48 h
[33] = test system: COLO 205; test: Cytotoxicity against human COLO205 cells assessed as cell growth at 0.1 uM after 48 hrs by sulforhodamine B assay relative to control; assay type: functional; details: COLO 205, 48 h, read-out: Activity
[34] = test system: SR; test: Cytotoxicity against human SR cells assessed as cell growth at 1 uM after 48 hrs by sulforhodamine B assay relative to control; assay type: functional; details: read-out: Activity
[35] = test system: 786-0; test: Cytotoxicity against human 786-0 cells assessed as cell growth at 100 uM after 48 hrs by sulforhodamine B assay relative to control; assay type: functional; details: 786-0, 48 h, read-out: Activity
[36] = test system: HL-60(TB); test: Cytotoxicity against human HL-60(TB) cells assessed as cell growth at 10 uM after 48 hrs by sulforhodamine B assay relative to control; assay type: functional; details: HL-60, 48 h, read-out: Activity

COc1cc(-c2cc(/C=C/C(=O)c3ccc(N)cc3)[nH]n2)cc(OC)c1OC
growth at 100 µM [1]: -20%
growth at 10 µM [2]: -64%
growth at 0.1 µM [3]: 91%
growth at 1 µM [4]: 43%
growth at 100 µM [5]: -91%
GI50 [6]: 2.01 µM
LC50 [6]: 6.53 µM
TGI [6]: 3.63 µM
growth at 10 µM [7]: -95%
growth at 100 µM [8]: -66%
growth at 1 µM [9]: 104%
growth at 0.01 µM [10]: 94%
growth at 10 µM [11]: -5%
growth at 1 µM [12]: 93%
growth at 100 µM [13]: -83%
growth at 0.1 µM [14]: 108%
growth at 10 µM [15]: -15%
growth at 1 µM [16]: 79%
GI50 [17]: 1.37 µM
LC50 [17]: > 100 µM
TGI [17]: 6.76 µM
growth at 100 µM [18]: -81%
growth at 100 µM [19]: -78%
GI50 [20]: 2.23 µM
TGI [20]: 5.59 µM
CC50 [20]: 20.9 µM
growth at 0.1 µM [21]: 101%
growth at 10 µM [22]: -22%
growth at 100 µM [23]: -55%
growth at 10 µM [24]: -55%
growth at 1 µM [25]: 95%
IC50 [26]: 2 µM
GI50 [27]: 2.05 µM
LC50 (lethal concentration, 50% net cell kill) [27]: > 100 µM
TGI [27]: 6.37 µM
growth at 0.1 µM [28]: 106%
growth at 100 µM [29]: -3%
growth at 100 µM [30]: -79%
growth at 100 µM [31]: -47%
GI50 [32]: 1.66 µM
LC50 [32]: 6.2 µM
TGI [32]: 3.21 µM
growth at 0.1 µM [33]: 100%
growth at 1 µM [34]: 14%
growth at 100 µM [35]: -90%

COc1cc(-c2cc(/C=C/C(=O)c3ccc(Cl)c(Cl)c3)[nH]n2)cc(OC)c1OC
growth at 100 µM [1]: -15%
growth at 10 µM [36]: 43%
growth at 10 µM [2]: 9%
growth at 0.1 µM [3]: 102%
growth at 1 µM [4]: 101%
growth at 100 µM [5]: -36%
LC50 [6]: > 100 µM
TGI [6]: 31.4 µM
growth at 10 µM [7]: 62%
growth at 100 µM [8]: 16%
growth at 1 µM [9]: 89%
growth at 0.01 µM [10]: 98%
growth at 10 µM [11]: 24%
growth at 1 µM [12]: 95%
growth at 100 µM [13]: -65%
growth at 0.1 µM [14]: 97%
growth at 10 µM [15]: 68%
growth at 1 µM [16]: 90%
growth at 100 µM [18]: -27%
growth at 100 µM [19]: 20%
TGI [20]: > 100 µM
CC50 [20]: > 100 µM
growth at 0.1 µM [21]: 94%
growth at 10 µM [22]: 52%
growth at 100 µM [23]: 5%
growth at 10 µM [24]: 60%
growth at 1 µM [25]: 95%
IC50 [26]: 2.1 µM
LC50 (lethal concentration, 50% net cell kill) [27]: > 100 µM
TGI [27]: 79.6 µM
growth at 0.1 µM [28]: 92%
growth at 100 µM [29]: -7%
growth at 100 µM [30]: 3%
growth at 100 µM [31]: -36%
LC50 [32]: > 100 µM
TGI [32]: > 100 µM
growth at 0.1 µM [33]: 88%
growth at 1 µM [34]: 23%
growth at 100 µM [35]: -10%
